Results on 41 compounds are retold here after ChEMBL document CHEMBL3351570, “Design and synthesis of 2-phenylnaphthalenoids as inhibitors of DNA topoisomeraseIIα and antitumor agents” (Eur J Med Chem, 2014).

pIC50: −log10 of the molar value. Active and inactive are the calls of the source. The rule behind the calls is not given here.

The test system of one assay is HeLa. The assay is described as follows: Cytotoxicity against human HeLa cells after 72 hrs by sulforhodamine B assay. The class given is functional, cell-based. On the technique in general: The SRB assay estimates cell density from bound dye.
The test system of a further assay is A549. Kind of assay: Cytotoxicity against human A549 cells after 72 hrs by sulforhodamine B assay. In kind it is functional, cell-based. The conditions noted are these: A549, 72 h.
For a further assay, the system named is MDA-MB-231. Kind of assay: Cytotoxicity against human MDA-MB-231 cells after 72 hrs by sulforhodamine B assay. In kind it is functional, cell-based. The conditions noted are these: MDA-MB-231, 72 h.
In assay [1] the target is DNA topoisomerase 2-alpha (Homo sapiens) (UniProt P11388). Kind of assay: Inhibition of human recombinant topoisomerase 2alpha assessed as reduction in pBR322 DNA relaxation at 100 uM incubated for 30 mins by DNA gel electrophoresis.
For assay [2] the target is unchanged. The assay is described as follows: Inhibition of human recombinant topoisomerase 2alpha assessed as reduction in kDNA decatenation at 100 uM incubated for 30 mins by DNA gel electrophoresis.

Sequence of DNA topoisomerase 2-alpha (Homo sapiens) (P11388 whole entry): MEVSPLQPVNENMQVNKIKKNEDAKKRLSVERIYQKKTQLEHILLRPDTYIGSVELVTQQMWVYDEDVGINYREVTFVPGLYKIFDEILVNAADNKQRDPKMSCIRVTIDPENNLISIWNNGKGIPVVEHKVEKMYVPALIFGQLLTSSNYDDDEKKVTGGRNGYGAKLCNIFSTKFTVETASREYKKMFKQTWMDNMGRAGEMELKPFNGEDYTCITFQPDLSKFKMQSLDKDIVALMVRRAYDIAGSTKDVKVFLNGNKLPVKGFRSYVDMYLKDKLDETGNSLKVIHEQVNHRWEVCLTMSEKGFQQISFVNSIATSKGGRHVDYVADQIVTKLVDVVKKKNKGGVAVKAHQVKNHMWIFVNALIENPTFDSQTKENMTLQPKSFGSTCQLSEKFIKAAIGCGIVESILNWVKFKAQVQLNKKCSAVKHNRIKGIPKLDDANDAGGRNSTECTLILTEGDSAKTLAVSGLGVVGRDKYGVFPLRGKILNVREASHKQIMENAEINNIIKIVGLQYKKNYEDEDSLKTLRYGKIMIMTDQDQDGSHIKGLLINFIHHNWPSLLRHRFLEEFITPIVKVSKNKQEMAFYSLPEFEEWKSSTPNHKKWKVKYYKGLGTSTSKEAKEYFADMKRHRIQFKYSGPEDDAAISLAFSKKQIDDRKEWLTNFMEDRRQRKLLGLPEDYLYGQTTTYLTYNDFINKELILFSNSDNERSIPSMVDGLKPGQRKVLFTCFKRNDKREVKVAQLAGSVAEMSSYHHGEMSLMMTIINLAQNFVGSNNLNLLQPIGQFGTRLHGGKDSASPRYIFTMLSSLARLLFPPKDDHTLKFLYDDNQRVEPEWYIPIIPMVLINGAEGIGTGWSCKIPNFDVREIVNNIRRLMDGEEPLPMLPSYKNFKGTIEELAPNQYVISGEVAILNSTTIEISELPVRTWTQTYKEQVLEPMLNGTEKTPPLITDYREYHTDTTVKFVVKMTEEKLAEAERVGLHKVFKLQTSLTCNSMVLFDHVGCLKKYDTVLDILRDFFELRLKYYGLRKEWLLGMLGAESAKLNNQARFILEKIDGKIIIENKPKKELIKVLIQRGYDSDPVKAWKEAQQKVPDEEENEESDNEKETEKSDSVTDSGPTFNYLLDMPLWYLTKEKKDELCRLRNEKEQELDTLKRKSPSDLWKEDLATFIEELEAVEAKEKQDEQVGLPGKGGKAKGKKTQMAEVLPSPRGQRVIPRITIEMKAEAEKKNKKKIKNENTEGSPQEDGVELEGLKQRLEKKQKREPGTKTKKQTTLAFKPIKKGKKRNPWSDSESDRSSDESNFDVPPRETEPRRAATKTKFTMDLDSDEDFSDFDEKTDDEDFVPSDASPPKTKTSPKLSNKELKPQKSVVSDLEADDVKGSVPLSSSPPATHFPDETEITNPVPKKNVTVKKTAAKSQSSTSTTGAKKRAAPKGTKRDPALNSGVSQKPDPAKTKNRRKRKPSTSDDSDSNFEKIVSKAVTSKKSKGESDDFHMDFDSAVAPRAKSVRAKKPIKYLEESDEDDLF

Turning to `COc1ccc(-c2ccc3cc(O)ccc3c2)cc1OC`, the pIC50 (as a rule, the negative decadic logarithm of the IC50, by convention in mol/L) in the assay with HeLa is 5.32; with A549 it was 4.70; in the assay on MDA-MB-231, 4.77.
Take `COc1ccc2cc(-c3ccc(CC(=O)O)cc3)ccc2c1`: the results for the pIC50 with HeLa, with A549 and in the assay with MDA-MB-231 were below 4.70, below 4.70 and 3.57, respectively.
In the case of `COC(=O)c1ccc(C)c(-c2ccc3cc(O)ccc3c2)c1`, the inhibition entry in assay [1] and in assay [2] was “Active” throughout. Further, the pIC50 with HeLa was 5.92; in the assay on A549, 5.30; in the assay with MDA-MB-231 it was 6.30.
For `COc1ccc2cc(-c3cccc(CO)c3)ccc2c1`, the negative logarithm of the IC50 (pIC50) in the assay with HeLa is 4.70; in the assay with A549 it was below 4.70; with MDA-MB-231, 4.70.
On to `COc1ccc2cc(-c3ccc(CCO)c(O)c3)ccc2c1`, for which the pIC50 in the assay with HeLa is below 4.70; in the assay with A549 it was below 4.70; in the assay with MDA-MB-231, 4.04.
In the case of `O=C(O)c1ccc(-c2ccc3cc(O)ccc3c2)cc1O`, the pIC50 in the assay with HeLa is 5.26; in the assay on A549, 4.82; with MDA-MB-231, 5.09.
The corresponding values for `COc1ccc2cc(-c3ccc(N)cc3)ccc2c1` are below 4.70, below 4.70 and 3.77.
The corresponding values for `O=C(O)c1cc(-c2ccc3cc(O)ccc3c2)ccc1O` are below 4.70, below 4.70 and 4.50.
On the same counts, the results for `COc1ccc2cc(-c3cc(C=O)c(O)c(OC)c3)ccc2c1` are below 4.70, below 4.70 and 4.21.
On to `COC(=O)C(O)c1ccc(-c2ccc3cc(OC)ccc3c2)cc1` (stereo unspecified), for which the pIC50 in the assay with HeLa was below 4.70; in the assay on A549 it was below 4.70; with MDA-MB-231, 4.62.
As for `O=[N+]([O-])c1ccc(-c2ccc3cc(O)ccc3c2)cc1C(F)(F)F`, the inhibition entry in assay [1] and in assay [2] was “Active” throughout. The results for the pIC50 with HeLa, in the assay with A549 and in the assay with MDA-MB-231 were 5.72, 5.46 and 5.35, respectively.
`COc1ccc2cc(-c3ccc(N)c(C)c3)ccc2c1`: the pIC50 in the assay with HeLa is below 4.70; in the assay with A549, below 4.70; in the assay with MDA-MB-231 it was below 3.10.
For the compound `COC(=O)c1cc(-c2ccc3cc(OC)ccc3c2)ccc1O`, the pIC50 in the assay on HeLa was below 4.70; with A549, below 4.70; with MDA-MB-231, 4.09.
As for `COC(=O)Cc1cc(-c2ccc3cc(OC)ccc3c2)ccc1O`, the pIC50 is below 4.70 in the assay with HeLa, below 4.70 in the assay with A549 and below 3.10 with MDA-MB-231.
`COc1ccc2cc(-c3ccc(C(F)(F)F)cc3)ccc2c1`: the values for the pIC50 in the assay with HeLa, with A549 and in the assay on MDA-MB-231 were below 4.70, below 4.70 and 4.26, respectively.
Turning to `COc1ccc2cc(-c3ccc(OC(C)=O)c(COC(C)=O)c3)ccc2c1`, the values for the pIC50 in the assay with HeLa, in the assay with A549 and in the assay on MDA-MB-231 were below 4.70, below 4.70 and 4.09, respectively.
Consider `Cc1ccc(C(=O)O)c(-c2ccc3cc(O)ccc3c2)c1`, for which the pIC50 in the assay with HeLa was below 4.70; in the assay with A549, below 4.70; in the assay with MDA-MB-231 it was 4.03. Besides, the inhibition entry in assay [2] is “Active”.
Consider `COC(=O)Cc1ccc(-c2ccc3cc(OC)ccc3c2)cc1`, for which the pIC50 with HeLa is below 4.70; with A549, below 4.70; in the assay with MDA-MB-231, 3.16.
With `COc1ccc2cc(-c3ccc([N+](=O)[O-])c(C(F)(F)F)c3)ccc2c1`, the pIC50 with HeLa is below 4.70; in the assay with A549 it was below 4.70; in the assay with MDA-MB-231 it was 3.78.
In the case of `Oc1ccc(-c2ccc3cc(O)ccc3c2)cc1`, the values for the pIC50 in the assay on HeLa, in the assay with A549 and in the assay on MDA-MB-231 were 5.51, 4.94 and 4.98, respectively.
The corresponding values for `COc1ccc2cc(-c3cc(C=O)ccc3O)ccc2c1` are below 4.70, 4.85 and 4.60.
On the same counts, the results for `OCc1cccc(-c2ccc3cc(O)ccc3c2)c1` are 5.49, 5.04 and 5.30.
The corresponding values for `COC(=O)c1ccc(-c2ccc3cc(OC)ccc3c2)cc1O` are below 4.70, below 4.70 and 4.11.
As to `COC(=O)c1ccc(C)c(-c2ccc3cc(OC)ccc3c2)c1`, the pIC50 in the assay with HeLa is 4.70; with A549, below 4.70; in the assay with MDA-MB-231 it was below 3.10. Besides, the inhibition result in assay [2] was “Active”.
Regarding `COc1ccc2cc(-c3cccc(C(F)(F)F)c3)ccc2c1`, the pIC50 was below 4.70 in the assay with HeLa, below 4.70 in the assay with A549 and 3.34 with MDA-MB-231.
With `COc1ccc2cc(-c3ccc(CO)cc3)ccc2c1`, the pIC50 with HeLa is 5.04; in the assay with A549 it was 5.10; in the assay with MDA-MB-231, 3.82.
In the assay on MDA-MB-231, `COC(=O)Cc1cc(-c2ccc3cc(O)ccc3c2)ccc1O` showed a pIC50 of 4.01.
Consider `COc1ccc2cc(-c3ccc(O)c(C(=O)O)c3)ccc2c1`, for which the pIC50 in the assay on HeLa was below 4.70; in the assay on A549, below 4.70; in the assay on MDA-MB-231, 4.03.
Turning to `O=C(O)Cc1cc(-c2ccc3cc(O)ccc3c2)ccc1O`, the pIC50 in the assay on HeLa was below 4.70; in the assay on A549, below 4.70; with MDA-MB-231, below 3.10.
Turning to `COC(=O)c1ccc(-c2ccc3cc(OC)ccc3c2)cc1`, the results for the pIC50 with HeLa, with A549 and in the assay with MDA-MB-231 were below 4.70, below 4.70 and below 3.10, respectively.
Turning to `COc1ccc2cc(-c3ccc(OC)c(C=O)c3)ccc2c1`, the pIC50 was below 4.70 in the assay on HeLa, below 4.70 with A549 and below 3.10 with MDA-MB-231.
For `COc1ccc2cc(-c3ccc(O)cc3)ccc2c1`, the results for the pIC50 with HeLa, in the assay with A549 and in the assay on MDA-MB-231 were below 4.70, below 4.70 and below 3.10, respectively.
For the compound `COc1ccc2cc(-c3cc(C(C)=O)c(O)c([N+](=O)[O-])c3)ccc2c1`, the pIC50 is below 4.70 in the assay with HeLa, below 4.70 with A549 and 4.70 with MDA-MB-231. Moreover, the inhibition result in assay [2] was “Active”.
For `O=Cc1ccc(O)c(-c2ccc3cc(O)ccc3c2)c1`, the inhibition entry in assay [1] and in assay [2] was “Active” each time. For the same compound, the pIC50 in the assay on HeLa was 5.30; in the assay with A549, 4.98; in the assay with MDA-MB-231, 5.49.
As to `OCc1ccc(-c2ccc3cc(O)ccc3c2)cc1`, the pIC50 in the assay with HeLa is 5.66; in the assay on A549 it was below 4.70; in the assay with MDA-MB-231, 4.53.
On the same counts, the results for `COc1ccc2cc(-c3ccc(OC)c(OC)c3)ccc2c1` are below 4.70, below 4.70 and 3.95.
On to `COc1ccc2cc(-c3ccc(C(C)O)cc3)ccc2c1` (stereo unspecified), for which the pIC50 in the assay on HeLa was below 4.70; in the assay on A549, below 4.70; in the assay on MDA-MB-231, 4.16.
For `COC(=O)c1ccc(O)c(-c2ccc3cc(OC)ccc3c2)c1`, the pIC50 was below 4.70 in the assay with HeLa, below 4.70 in the assay on A549 and 4.44 in the assay with MDA-MB-231.
Take `COC(=O)c1ccc(O)c(-c2ccc3cc(O)ccc3c2)c1`: the inhibition result in assay [1] is “Active”. Besides, the pIC50 in the assay on HeLa was 5.66; in the assay on A549 it was 4.94; in the assay with MDA-MB-231, 5.12.
With `Nc1ccc(-c2ccc3cc(O)ccc3c2)cc1`, the pIC50 is 5.51 in the assay on HeLa, 4.70 in the assay on A549 and 4.74 with MDA-MB-231.
On the same counts, the results for `CC(O)c1ccc(-c2ccc3cc(O)ccc3c2)cc1` (stereo unspecified) are 5.47, 4.70 and 5.12.
